Laboratory results taken from patent publication US9981983B2, “Thienopyranones as kinase inhibitors” (SignalRx Pharmaceuticals, Inc., priority 2008, dated 2018).

Columns and labels:
pAKT in 786-O cells = assay: pAKT status DM50, 786-O; assay type: cell-based; details: Homo sapiens, 786-0, renal cell carcinoma
Protocol: PC3 cells were obtained from the American Type Culture Collection (ATCC, Manassas, Va., Cat.# CRL-1435). Two million cells from the prostate cancer line PC3 were placed into 6 cm culture dishes and allowed to grow in complete RPMI 1640 media (Invitrogen, Carlsbad, Calif., Cat.#22400-105) with 10% fetal bovine serum (Invitrogen, Carlsbad, Calif., Cat.#10438-026). After this time period the cells were serum starved for 5 hours followed by application of the test compound. Test compound was added as a DMSO (dimethyl sulfoxide) solution such that the final DMSO concentration in the cell media was less than or equal to 0.2% by volume After 30 minutes of exposure the growth factor stimulant, human IGF-1 (PeproTech, Inc., Rocky Hill, N.J., Cat.#100-11), was added to a final concentration of 0.1 μg/ml in each well. After 30 minutes of IGF-1 exposure, cells were removed from the media and cell lysates were prepared using RIPA Lysis buffer (Upstate, Lake Placid, N.Y., Cat.#20-188), keeping on ice. The pAKT serine 473 level was measured in duplicate samples of the cell lysates using commercially available assays such as the Pathscan® Sandwich ELISA kit for Ser473 pAKT (Cell Signaling, Danvers, Mass., Cat.#7160). A SpectraMax Plus spectrophotometric plate reader (Molecular Devices, Sunnydale, Calif.) was used to measure the optical density signal for pAKT at 450 nm (OD450 nm). The pAKT OD450 nm readings were normalized by total protein amount in the cell lysates determined by standard methods.
Concentrations of test compounds required to inhibit IGF stimulated pAKT levels to 50% of maximum levels in PC3 cells (termed DM50 for decreased maximum 50%) were calculated by inputting the dose responses in the software package GraphPad Prism4 (GraphPad Software, Inc., San Diego, Calif.).
Several other cancer cell lines were obtained from ATCC and grown according to the supplier's recommendations and treated with test compounds. DM50 values listed in Table 6 below were obtained by the methods described in Example A: […]

LNCaP cells = assay: Oxidative stress of prostate cancer cells (8-iso-Prostaglandin F2α ELISA); assay type: cell-based; details: for OD450 nm reading / 8-iso-Prostaglandin F2α generated: 20 μM; for 8-iso-Prostaglandin F2α generated: control 1.5 μg/mL
Protocol: LNCaP cells were obtained from the American Type Culture Collection (ATCC, Manassas, Va., Cat.# CRL-1740). 3.5 million cells from the prostate cancer line LNCaP were placed into each of three 10 cm culture dishes and allowed to grow overnight in complete RPMI 1640 media (Invitrogen, Carlsbad, Calif., Cat.#22400-105) with 10% fetal bovine serum (Invitrogen, Carlsbad, Calif., Cat#10438-026). Test compound was added into the dishes to the concentration of 0 and 20 μM and allowed to incubate at 37° C. in a 5% CO2 atmosphere for 2 and 24 hours. Following this the pH of the cell culture media was adjusted down to 3.5 with 2M HCl. After sitting at 4° C. for 15 minutes, the cell culture media from each culture dishes was applied to each of three C18 reverse phase columns (Biotage ISOLUTE, Part #220-0020-B, Lot #5223506B2A, www.biotage.com) which were prewashed with 10 mL/column of ethanol followed by 10 mL/column of deionized water. The loaded columns were then washed with 10 mL/column of water, followed by 10 mL/column of 15% ethanol, and finally 10 mL/column hexane. The desired samples were then eluted from the columns by addition of 10 mL/column ethyl acetate. The ethyl acetate was then evaporated to dryness using a rotating evaporator. Each sample was then dissolved in 500 μL of Assay Buffer provided in BioMol's Isoprostane Oxidative Stress Assay Kit A (Cat. # AK150-0001, Lot #3-08010825). Using the kit reagents according to the manufacturer's instructions the oxidative product 8-iso-Prostaglandin F2α was quantitated by ELISA. Also, using reagents from the kit a standard curve of oxidation product (8-iso-Prostaglandin F2α) versus optical density reading at 450 nm. From this curve optical density readings from the test samples were converted to μg/mL of the oxidation marker 8-iso-Prostaglandin F2α. This kit from BioMol is designed to determine the amount of the 8-iso-Prostaglandin F2α produced as a marker for the amount of oxidative stress experienced by the cells.

Structure (SMILES): O=c1cc(N2CCOCC2)oc2c(-c3ccc4c(c3)OCCO4)csc12 [Compound 28, 3-(2,3-dihydrobenzo[b][1,4]dioxin-6-yl)-5-morpholino-7H-thieno[3,2-b]pyran-7-one]
- IC50 (pAKT in 786-O cells): 1370 nM
- OD450 nm reading (LNCaP cells; 2 hours exposure): 1.01 units
- 8-iso-Prostaglandin F2α generated (LNCaP cells; 2 hours): 18.0 µg/mL
- OD450 nm reading (LNCaP cells; 24 hours exposure): 0.96 units
- 8-iso-Prostaglandin F2α generated (LNCaP cells; 24 hours): 21.0 µg/mL
- increase of oxidation marker 8-iso-Prostaglandin F2α relative to untreated controls (LNCaP cells; 2 hours): 12 fold
- increase of oxidation marker 8-iso-Prostaglandin F2α relative to untreated controls (LNCaP cells; 24 hours): 14 fold
